Data: PubChem BioAssay (NCI)
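Growth conditions: 96-well plates. Treatment: test compound, 48 hours, 5 concentrations. Analysis: linear interpolation between bracketing concentrations; unreached endpoints set to highest concentration. Definition used: TGI = concentration required for complete inhibition of growth.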

Tests used:
Test in all cases: growth of human tumour cells (NCI), 48 h
OVCAR-4 ovarian = tested on: OVCAR-4 ovarian
BT-549 breast = tested on: BT-549 breast
SK-MEL-28 melanoma = tested on: SK-MEL-28 melanoma
MDA-MB-435 = tested on: MDA-MB-435
SK-OV-3 ovarian = tested on: SK-OV-3 ovarian
SNB-75 CNS = tested on: SNB-75 CNS
SR leukemia = tested on: SR leukemia
HOP-92 NSCLC = tested on: HOP-92 NSCLC
MCF7 breast = tested on: MCF7 breast
SN12C renal = tested on: SN12C renal

SMILES | TGI (OVCAR-4 ovarian) [µM] | TGI (BT-549 breast) [µM] | TGI (SK-MEL-28 melanoma) [µM] | TGI (MDA-MB-435) [µM] | TGI (SK-OV-3 ovarian) [µM] | TGI (SNB-75 CNS) [µM] | TGI (SR leukemia) [µM] | TGI (HOP-92 NSCLC) [µM] | TGI (MCF7 breast) [µM] | TGI (SN12C renal) [µM]
CCOC(=O)C1CC(C(=O)c2ccccc2)N2c3ccccc3-c3ccccc3C12 (stereo not given) | > 100 | > 100 | > 100 | > 100 | > 100 | > 100 | 84.1 | > 100 | > 100 | > 100
COC(=O)c1ccccc1C1CN=NC12Cc1c(ccc3c1CCC3)C2=O (stereo not given) | > 100 | > 100 | > 100 | 56.2 | > 100 | > 100 | > 100 | > 100 | > 100 | > 100
CCOC(=O)/C(C(N)=O)=C(\O)C(=O)/C(Br)=C(\O)c1ccccc1 | 56.5 | 33.7 | 34.9 | 31.6 | > 57.4 | 32.1 | 12.1 | 53.7 | 36.9 | 34.2
CC(C)(C)OC(=O)[C@@H]1CCC(=O)N1C1(c2ccccc2)c2ccccc2-c2ccccc21 | > 100 | > 100 | 71.3 | > 100 | > 100 | > 100 | 62.3 | > 100 | > 100 | > 100
O=C(O)CSc1ccccc1C(=O)O | > 100 | > 100 | > 100 | > 100 | > 100 | > 100 | > 100 | > 100 | > 100 | > 100
NNC(=O)Nc1nc2ccc(NN)cc2[nH]1 | > 100 | 84.1 | 56.8 | 54 | > 100 | 84.2 | 43.2 | 57.3 | 82.5 | > 100
Cc1c(C(=O)c2ccc(N)c3ccccc23)c2ccccc2n1CCN1CCOCC1 | > 47.8 | 80.1 | > 100 | 37 | > 100 | 47.4 | > 85.3 | 75.6 | 70.9 | > 94.1
C1=NCCNCCNCCN=Cc2ccc(cc2)OCc2cccc(n2)COc2ccc1cc2 | > 100 | > 100 | > 100 | > 100 | > 100 | > 100 | > 100 | > 100 | > 100 | > 100
CSC(=S)Nc1cc(C)cc(C)n1 | > 31.6 | > 100 | > 31.6 | > 31.6 | > 31.6 | > 10 | > 10 | > 31.6 | > 31.6 | > 31.6
Nc1ccc(-c2nc3ccccc3s2)cc1Cl | > 100 | > 100 | > 100 | > 100 | > 100 | > 93.5 | > 100 | > 100 | > 100 | > 100
C[C@]12CC[C@H]3[C@@H](CCC4=CC(=O)C=C[C@@]43OC(=O)C(F)(F)F)[C@@H]1CCC2=O | > 100 | > 100 | > 100 | > 100 | > 100 | > 100 | > 100 | > 100 | > 100 | > 100
FC(F)(F)c1cc(N(C2c3ccccc3C=Cc3ccccc32)P(Cl)Cl)cc(C(F)(F)F)c1 | 42.9 | 23 | 87.8 | 64.9 | 69.8 | 61.7 | 46.9 | 30.4 | 50 | 32.7
